The test system of experiment [1] is intracellular ROS (Reactive Oxygen Species). Briefly: Production of ROS in keratinocytes subjected to H2O2 stress (DCFH-DA probe). The class given is cell-based, human. The following applies: for ROS Mean: H2O2 100 μM. The procedure:
The antioxidant potential of the KPO extract was evaluated in an assay model of intracellular ROS (Reactive Oxygen Species) induced by pro-oxidising H2O2 stress. Normal human epidermal keratinocytes were pre-incubated for 24 hours with KPO extract at 0.001%, 0.002% or 0.005% (d.e.) or reference anti-inflammatory molecules Quercetin at 10 μM or Vitamin C at 500 μM. The cell layer was then contacted with a DCFH-DA probe prior to induction of oxidative stress by 100 μM of H2O2. The amount of ROS produced was evaluated by measuring the fluorescence emitted when the probe is oxidised. The results were analysed statistically by one-factor variance analysis followed by a Tukey test: **p<0.01; ***p<0.001.

In experiment [2] the test system is Prostaglandin E2 (PGE2). Kind of experiment: Production of PGE2 in keratinocytes stimulated by PMA (ELISA). The following applies: indomethacin at 0.1 μM. The class given is cell-based, human. The procedure: The keratinocytes were then stimulated by 10 μg/ml of PMA (Phorbol Myristate Acetate) and incubated overnight with KPO extract or reference molecules. […] The significance was evaluated by means of one-factor variance analysis followed by a Tukey test: *p<0.05; ***p<0.001; ns: non-significant p>0.05.

Experiment [3] has as its system SPARC. Briefly: Gene expression in normal human dermal fibroblasts (RT-qPCR): SPARC. The class given is cell-based. Particulars: TGFβ1 5 ng/ml. As to the method:
(§1) The effect of the KPO extract was evaluated on the gene expression of markers involved in cell communication and in the organisation of the dermal extracellular matrix in the fibroblasts: normal human dermal fibroblasts were incubated for 6 hours or 24 hours with 0.0005% or 0.001% KPO extract (d.e.) or TGFβ1 at 5 ng/ml (positive control for dermal matrix induction markers). At the end of incubation, the gene expression of the following markers was analysed by RT-qPCR. • CTNNA1 (Catenin α): binds to cadherins to promote cellular interactions. • Syndecan: proteoglycan which consolidates cell/cell and cell/matrix interactions. • Laminin 5 (α3β3γ2): a molecule that assists adhesion to the basal membrane. • TNC (Tenacin C): extracellular matrix proteins involved in cohesion of the dermo-epidermal junction and which promote the synthesis of collagen VII. • SPARC: protein associated with various constituents of the extracellular matrix and which contributes to its organisation. • BGN (Biglycan): proteoglycan involved in the assembly of collagen fibres. • Versican: a major component of the ECM which plays a central role in the morphogenesis and maintenance of tissues. […]
(§2) The results are given as relative quantities (RQ) with respect to the untreated control. […]
(In general: In qPCR the cycle at which signal appears reflects the starting amount.)

The test system of experiment [4] is Fibronectin. Kind of experiment: Gene expression in normal human dermal fibroblasts (RT-qPCR): Fibronectin. The class given is cell-based. The following applies: TGFβ1 5 ng/ml. The procedure: as §1, §2
Experiment [5] deals with Collagen VII. Briefly: Gene expression in normal human dermal fibroblasts (RT-qPCR): Collagen VII. It counts as cell-based. Particulars: TGFβ1 5 ng/ml. The procedure: as §1, §2
In experiment [6] the test system is Dermatopontin. Kind of experiment: Gene expression in normal human dermal fibroblasts (RT-qPCR): Dermatopontin. The class given is cell-based. The following applies: TGFβ1 5 ng/ml. The procedure:
as §1, §2

Experiment [7] concerns Versican. Kind of experiment: Gene expression in normal human dermal fibroblasts (RT-qPCR): Versican. The class given is cell-based. Particulars: TGFβ1 5 ng/ml. As to the method: as §1, §2
The test system of experiment [8] is Collagen IV. Briefly: Gene expression in normal human dermal fibroblasts (RT-qPCR): Collagen IV. The class given is cell-based. Particulars: TGFβ1 5 ng/ml. As to the method:
as §1, §2

In experiment [9] the test system is CTNNA1 (Catenin α). Kind of experiment: Gene expression in normal human dermal fibroblasts (RT-qPCR): CTNNA1. It counts as cell-based. The following applies: TGFβ1 5 ng/ml. As to the method: as §1, §2
In experiment [10] the test system is Collagen I. Briefly: Gene expression in normal human dermal fibroblasts (RT-qPCR): Collagen I. It counts as cell-based. Particulars: TGFβ1 5 ng/ml. As to the method: as §1, §2
Experiment [11] concerns TNC (Tenacin C). Kind of experiment: Gene expression in normal human dermal fibroblasts (RT-qPCR): TNC. The following applies: TGFβ1 5 ng/ml. It counts as cell-based. The procedure:
as §1, §2

Experiment [12] relates to BGN (Biglycan). Kind of experiment: Gene expression in normal human dermal fibroblasts (RT-qPCR): BGN. The class given is cell-based. Particulars: TGFβ1 5 ng/ml. The procedure:
as §1, §2

The subject of experiment [13] is Elastin. Kind of experiment: Gene expression in normal human dermal fibroblasts (RT-qPCR): Elastin. It counts as cell-based. Particulars: TGFβ1 5 ng/ml. The procedure: as §1, §2
Experiment [14] deals with Collagen III. Briefly: Gene expression in normal human dermal fibroblasts (RT-qPCR): Collagen III. It counts as cell-based. Particulars: TGFβ1 5 ng/ml. As to the method:
as §1, §2

Experiment [15] concerns LOXL. Briefly: Gene expression in normal human dermal fibroblasts (RT-qPCR): LOXL. The class given is cell-based. The following applies: TGFβ1 5 ng/ml. As to the method:
as §1, §2

Experiment [16] concerns Syndecan. Kind of experiment: Gene expression in normal human dermal fibroblasts (RT-qPCR): Syndecan. The class given is cell-based. The following applies: TGFβ1 5 ng/ml. As to the method: as §1, §2

Data on four compounds can be found in US11484559B2, “Kapok tree flower extract, and cosmetic, pharmaceutical or dermatological compositions containing same” (Laboratoires Expanscience, priority 2017, dated 2022).

Consider `O=C1O[C@H]([C@@H](O)CO)C(O)=C1O` [Vit C, Vitamin C], for which, in experiment [1] (Vit C 500 μM), the “ROS change vs H2O2” value was −90% vs H2O2 *** and the “ROS Mean” value is recorded as 12807.703 Arbitrary Unit.

`COc1ccc2c(c1)c(CC(=O)O)c(C)n2C(=O)c1ccc(Cl)cc1` [Indo, indomethacin]: in [2], the “PGE2 change vs PMA” value was −77% vs PMA ***. Also, the “PGE2 Mean” value in [2] (PMA stimulated) is listed as 181.780 (pg/ml)/OD neutral red.

For the compound `O=c1c(O)c(-c2ccc(O)c(O)c2)oc2cc(O)cc(O)c12` [Quercetin], in experiment [1] (Quercetin at 10 μmol/l), the “ROS change vs H2O2” value was −90% vs H2O2 *** and the “ROS Mean” value was 12959.361 Arbitrary Unit.

For “TGFβ1: positive control for dermal matrix induction markers”, the “SPARC Degree of expression (Relative Quantity)” value is 1.28 ns in experiment [3] (6 h of treatment) and 2.00 *** in experiment [3] (24 h of treatment). The “Fibronectin Degree of expression (Relative Quantity)” value in experiment [4] (6 h of treatment) is recorded as 1.09 ns; in [4] (24 h of treatment), 2.12 *. For the same compound, the “Collagen VII Degree of expression (Relative Quantity)” value in experiment [5] (6 h of treatment) is on record as 1.96 ***; in experiment [5] (24 h of treatment) it was 3.07 ***. Also, the “Dermatopontin Degree of expression (Relative Quantity)” value in [6] (6 h of treatment) is 1.14 ns; in experiment [6] (24 h of treatment), 1.36 *. The entries for the “Versican Degree of expression (Relative Quantity)” value in [7] (6 h of treatment) and in experiment [7] (24 h of treatment) were 1.61 ns and 2.87 **, respectively. For the same compound, the “Collagen IV Degree of expression (Relative Quantity)” value is given as 1.68 *** in experiment [8] (6 h of treatment) and 2.81 ** in [8] (24 h of treatment). Also, the “CTNNA1 Degree of expression (Relative Quantity)” value in [9] (6 h of treatment) and in experiment [9] (24 h of treatment) was 1.07 ns throughout. For the same compound, the “Collagen I Degree of expression (Relative Quantity)” value is reported as 0.84 ns in [10] (6 h of treatment) and 2.30 * in experiment [10] (24 h of treatment). The figures for the “TNC Degree of expression (Relative Quantity)” value in experiment [11] (6 h of treatment) and in [11] (24 h of treatment) were 0.94 ns and 1.79 *, respectively. Moreover, the “BGN Degree of expression (Relative Quantity)” value in experiment [12] (6 h of treatment) is recorded as 1.28 ns; in [12] (24 h of treatment), 2.92 ***. Besides, the “Elastin Degree of expression (Relative Quantity)” value was 0.72 ns in [13] (6 h of treatment) and 3.65 ** in experiment [13] (24 h of treatment). Moreover, the “Collagen III Degree of expression (Relative Quantity)” value stood at 0.91 ns in experiment [14] (6 h of treatment) and 1.24 ns in experiment [14] (24 h of treatment). Also, the figures for the “LOXL Degree of expression (Relative Quantity)” value in [15] (6 h of treatment) and in experiment [15] (24 h of treatment) were 1.05 ns and 1.10 ns, respectively. Moreover, the “Syndecan Degree of expression (Relative Quantity)” value in experiment [16] (6 h of treatment) is recorded as 1.85 ns; in [16] (24 h of treatment), 8.08 ***.
